Laboratory results as given in ChEMBL document CHEMBL3862001, “Tetrahydropyrazolo[4,3-c]pyridine derivatives as potent and peripherally selective cannabinoid-1 (CB1) receptor inverse agonists” (Bioorg Med Chem Lett, 2016).

Experiments:
Cannabinoid receptor 1 = Cannabinoid receptor 1 (Homo sapiens, UniProt P21554); assay: Inverse agonist activity at human CB1 receptor transfected in HEK293 cells assessed as increase of forskolin-induced cAMP production incubated for 30 mins followed by d2 labeled cAMP addition measured after 60 mins by HTRF assay; type: functional, cell-based
Cannabinoid receptor 2 = Cannabinoid receptor 2 (Homo sapiens, UniProt P34972); assay: Inverse agonist activity at human CB2 receptor transfected in HEK293 cells assessed as increase of forskolin-induced cAMP production incubated for 30 mins followed by d2 labeled cAMP addition measured after 60 mins by HTRF assay; type: functional, cell-based
[1] = Plasma concentration in C57BL/6J mouse at 30 mg/kg, po measured at 4 hrs; type: ADME, organism-based
[2] = Drug uptake in C57BL/6J mouse brain at 30 mg/kg, po measured at 4 hrs; type: ADME, organism-based; conditions: read-out: Drug uptake
[3] = Plasma concentration in C57BL/6J mouse at 20 mg/kg, po measured at 4 hrs; type: ADME, organism-based
[4] = Drug uptake in C57BL/6J mouse brain at 20 mg/kg, po measured at 4 hrs; type: ADME, organism-based; conditions: for Drug uptake: in vivo, 4 h
[5] = Ratio of drug level in brain to plasma in C57BL/6J mouse at 20 mg/kg, po measured at 4 hrs; type: ADME, organism-based; conditions: read-out: BPR
[6] = Plasma concentration in C57BL/6J mouse at 20 mg/kg, po measured at 2 hrs; type: ADME, organism-based
[7] = Drug uptake in C57BL/6J mouse brain at 20 mg/kg, po measured at 2 hrs; type: ADME, organism-based; conditions: for Drug uptake: in vivo, 2 h; for concentration at 2 h: C57BL/6J, brain, read-out: Drug uptake
[8] = Ratio of drug level in brain to plasma in C57BL/6J mouse at 20 mg/kg, po measured at 2 hrs; type: ADME, organism-based; conditions: read-out: BPR
[9] = Ratio of drug level in brain in C57BL/6J mouse at 20 mg/kg, po measured at 4 hrs to drug level in plasma in C57BL/6J mouse at 20 mg/kg, po measured at 2 hrs; type: ADME, organism-based; conditions: read-out: BPR

Cannabinoid receptor 2, sequence (P34972 whole entry): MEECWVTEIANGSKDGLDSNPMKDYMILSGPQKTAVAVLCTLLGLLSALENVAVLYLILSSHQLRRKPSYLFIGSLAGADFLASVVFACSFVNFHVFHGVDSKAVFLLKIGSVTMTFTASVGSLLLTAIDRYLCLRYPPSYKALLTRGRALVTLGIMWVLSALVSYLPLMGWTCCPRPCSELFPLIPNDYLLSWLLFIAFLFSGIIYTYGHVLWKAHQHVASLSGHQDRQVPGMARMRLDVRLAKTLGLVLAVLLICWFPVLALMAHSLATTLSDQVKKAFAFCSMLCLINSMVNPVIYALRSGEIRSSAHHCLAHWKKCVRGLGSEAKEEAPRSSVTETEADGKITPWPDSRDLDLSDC
Cannabinoid receptor 1, sequence (P21554 whole entry): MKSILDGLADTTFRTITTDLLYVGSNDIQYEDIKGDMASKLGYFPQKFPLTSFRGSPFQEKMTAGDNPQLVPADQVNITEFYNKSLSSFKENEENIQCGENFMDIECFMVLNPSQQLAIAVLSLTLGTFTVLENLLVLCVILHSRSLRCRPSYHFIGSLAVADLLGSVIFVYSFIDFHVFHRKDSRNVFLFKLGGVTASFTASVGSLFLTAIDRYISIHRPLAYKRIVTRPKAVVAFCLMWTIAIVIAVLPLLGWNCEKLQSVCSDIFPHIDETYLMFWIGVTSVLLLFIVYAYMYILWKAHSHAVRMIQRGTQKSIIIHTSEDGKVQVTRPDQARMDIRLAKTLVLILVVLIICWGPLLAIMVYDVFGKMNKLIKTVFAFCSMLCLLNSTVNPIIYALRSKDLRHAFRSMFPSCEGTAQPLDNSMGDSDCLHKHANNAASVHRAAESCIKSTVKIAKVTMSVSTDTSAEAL

| SMILES | EC50 (Cannabinoid receptor 1) [nM] | EC50 (Cannabinoid receptor 2) [nM] | concentration at 4 h [1] [nM] | concentration at 4 h [2] [ng/mL] | concentration at 4 h [3] [nM] | Drug uptake [4] [nmol/g] | Kp at 4 h [5] | concentration at 4 h ([4]; C57BL/6J, brain, read-out: Drug uptake) [ng/mL] | concentration at 2 h [6] [nM] | Drug uptake [7] [nmol/g] | Kp at 2 h [8] | Kp [9] | concentration at 2 h [7] [ng/mL] |
| --- | --- | --- | --- | --- | --- | --- | --- | --- | --- | --- | --- | --- | --- |
| C[C@@H](NC(=O)c1nn(-c2ccc(Cl)cc2Cl)c2c1CN(C(=O)CC(N)=O)C/C2=C\c1ccc(F)cc1)c1ccccn1 | 9 | > 10000 | 2290 | < 5 | – | – | – | – | – | – | – | – | – |
| COc1ccc(/C=C2\CN(C(=O)CS(N)(=O)=O)Cc3c(C(=O)N[C@H](C)c4ccccn4)nn(-c4ccc(Cl)cc4Cl)c32)cc1 | 8 | 1450 | – | – | 2090 | 0.08 | 0.04 | – | – | – | – | – | – |
| COc1ccc(/C=C2\CN(C(=O)CC(=O)O)Cc3c(C(=O)N[C@H](C)c4ccccn4)nn(-c4ccc(Cl)cc4Cl)c32)cc1 | 11 | 1940 | – | – | 90 | – | – | < 5 | – | – | – | – | – |
| C[C@@H](NC(=O)c1nn(-c2ccc(Cl)cc2Cl)c2c1CN(C(=O)Cn1cnnn1)C/C2=C\c1ccc(F)cc1)c1ccccn1 | 6 | 8610 | – | – | 2280 | 0.07 | 0.03 | – | – | – | – | – | – |
| C[C@@H](NC(=O)c1nn(-c2ccc(Cl)cc2)c2c1CN(C(=O)c1nc[nH]n1)C/C2=C\c1ccc(Cl)cc1)c1ccccc1 | 17 | > 10000 | – | – | – | – | – | – | 9780 | 0.47 | 0.05 | – | – |
| C[C@@H](NC(=O)c1nn(-c2ccc(Cl)cc2Cl)c2c1CN(C(=O)Cn1cnnn1)C/C2=C\c1ccc(F)cc1)c1ccccc1 | 8 | 3240 | – | – | – | 0.43 | – | – | 9190 | – | – | 0.05 | – |
| C[C@@H](NC(=O)c1nn(-c2ccc(Cl)cc2Cl)c2c1CN(C(=O)CNS(C)(=O)=O)C/C2=C\c1ccc(Cl)cc1)c1ccccn1 | 17 | > 10000 | – | – | 3320 | 0.17 | 0.05 | – | – | – | – | – | – |
| C[C@@H](NC(=O)c1nn(-c2ccc(Cl)cc2Cl)c2c1CN(C(=O)c1nc[nH]n1)C/C2=C\c1ccc(F)cc1)c1ccccc1 | 15 | 1310 | – | – | – | – | – | – | 4480 | 0.25 | 0.06 | – | – |
| COc1ccc(/C=C2\CN(C(=O)CCS(N)(=O)=O)Cc3c(C(=O)N[C@H](C)c4ccccn4)nn(-c4ccc(Cl)cc4Cl)c32)cc1 | 6 | 650 | – | – | 1360 | 0.05 | 0.04 | – | – | – | – | – | – |
| C[C@@H](NC(=O)c1nn(-c2ccc(Cl)cc2Cl)c2c1CN(C(=O)CCC(N)=O)C/C2=C\c1ccc(F)cc1)c1ccccn1 | 20 | > 10000 | – | – | 4250 | 0.12 | 0.03 | – | – | – | – | – | – |
| C[C@@H](NC(=O)c1nn(-c2ccc(Cl)cc2)c2c1CN(C(=O)c1nc[nH]n1)C/C2=C\c1ccc(Cl)cc1)c1ccccn1 | 28 | > 10000 | – | – | – | – | – | – | 2380 | 0.1 | 0.04 | – | – |
| C[C@@H](NC(=O)c1nn(-c2ccc(Cl)cc2Cl)c2c1CN(C(=O)[C@@H](O)CO)C/C2=C\c1ccc(Cl)cc1)c1ccccn1 | 22 | 5550 | – | – | 2410 | 0.18 | 0.08 | – | – | – | – | – | – |
| COc1ccc(/C=C2\CN(C(=O)Cn3cnnn3)Cc3c(C(=O)N[C@H](C)c4ccccc4)nn(-c4ccc(Cl)cc4Cl)c32)cc1 | 6 | 1130 | – | – | – | – | – | – | 2960 | 0.07 | 0.02 | – | – |
| C[C@@H](NC(=O)c1nn(-c2ccc(Cl)cc2)c2c1CN(C(=O)CNS(C)(=O)=O)C/C2=C\c1ccc(F)cc1)c1ccccn1 | 30 | > 10000 | – | – | 1720 | 0.09 | 0.05 | – | – | – | – | – | – |
| COc1ccc(/C=C2\CN(C(=O)CN)Cc3c(C(=O)N[C@H](C)c4ccccc4)nn(-c4ccc(Cl)cc4Cl)c32)cc1 | 24 | > 10000 | – | – | 1530 | 0.07 | 0.04 | – | – | – | – | – | – |
| C[C@@H](NC(=O)c1nn(-c2ccc(Cl)c(Cl)c2)c2c1CN(C(=O)Cn1cnnn1)C/C2=C\c1ccc(F)cc1)c1ccccn1 | 7 | 3660 | – | – | 2820 | 0.15 | 0.05 | – | – | – | – | – | – |
| COc1ccc(/C=C2\CN(C(=O)Cn3ccnc3)Cc3c(C(=O)N[C@H](C)c4ccccc4)nn(-c4ccc(Cl)cc4Cl)c32)cc1 | 5 | 370 | – | – | – | – | – | – | 580 | – | – | – | < 5 |
| C[C@@H](NC(=O)c1nn(-c2ccc(Cl)cc2)c2c1CN(C(=O)c1nc[nH]n1)C/C2=C\c1ccc(F)cc1)c1ccccc1 | 12 | > 10000 | – | – | – | – | – | – | 1320 | 0.09 | 0.07 | – | – |
| COc1ccc(/C=C2\CN(C(=O)Cn3ccnn3)Cc3c(C(=O)N[C@H](C)c4ccccc4)nn(-c4ccc(Cl)cc4Cl)c32)cc1 | 4 | 1270 | – | – | – | – | – | – | 30 | – | – | – | < 5 |
| C[C@@H](NC(=O)c1nn(-c2ccc(Cl)c(Cl)c2)c2c1CN(C(=O)Cn1cncn1)C/C2=C\c1ccc(Cl)cc1)c1ccccn1 | 6 | 7850 | – | – | 4600 | 0.35 | 0.08 | – | – | – | – | – | – |
| COc1ccc(/C=C2\CN(C(=O)c3cc[nH]n3)Cc3c(C(=O)N[C@H](C)c4ccccc4)nn(-c4ccc(Cl)cc4Cl)c32)cc1 | 32 | 4660 | – | – | – | – | – | – | 1720 | – | – | – | < 5 |
| COc1ccc(/C=C2\CN(C(=O)c3nc[nH]n3)Cc3c(C(=O)N[C@H](C)c4ccccc4)nn(-c4ccc(Cl)cc4Cl)c32)cc1 | 15 | 1760 | – | – | – | – | – | – | 1480 | 0.05 | 0.03 | – | – |
| C[C@@H](NC(=O)c1nn(-c2ccc(Cl)cc2Cl)c2c1CN(C(=O)[C@@H](O)CO)C/C2=C\c1ccc(Cl)cc1)c1ccccc1 | 18 | 2910 | – | – | 2770 | 0.17 | 0.06 | – | – | – | – | – | – |
